Reference: patent US11357779B2 (G1 Therapeutics, Inc., priority 2018, dated 2022)
Entries after “also recorded” stand apart in the source; their conditions may differ. Like-named read-outs stand apart in the source and are kept apart here.

Key:
[1] = TG and TG-IR analysis of Form B; assay type: physicochemical; conditions: TG-IR
Experimental: The TG analyses were performed using a TA Instrument Q5000 thermogravimetric analyzer. Temperature calibration was performed using nickel and Alumel. The sample was placed in a platinum pan and inserted into the TG furnace. The furnace was heated under a nitrogen purge to 350° C. at a rate of 10° C./min.
Thermogravimetric infrared (TG-IR) analysis was performed on a TA Instruments Q5000 IR thermogravimetric (TG) analyzer interfaced to a Magna-IR 560@ Fourier transform infrared (FT-IR) spectrophotometer (Thermo Nicolet) equipped with an Ever-Glo mid/far IR source, a potassium bromide (KBr) beamsplitter, and a mercury cadmium telluride (MCT-A) detector. The FT-IR wavelength verification was performed using polystyrene, and the TG calibration standards were nickel and Alumel™. The sample was placed in a platinum sample pan and the pan was inserted into the TG furnace. The TG instrument was started first, immediately followed by the FT-IR instrument. The TG instrument was operated under a flow of helium at 90 and 10 cc/minute for the purge and balance, respectively. The furnace was heated under helium at a rate of 20° C./minute to a final temperature of approximately 140° C. IR spectra were collected approximately every 32 seconds for approximately 7.5 minutes. Each IR spectrum represents 32 co-added scans collected at a spectral resolution of 4 cm-1. Volatiles were identified from a search of the High Resolution Nicolet Vapor Phase spectral library.
A TG-IR experiment was carried out on pure Form B (Sample 11 from the small-scale slurry experiments) at […] in an effort to investigate the stability of Form B at elevated temperature by monitoring potential release of hydrogen chloride.

[2] = test system: ME-016 tumor; test: Murine BRAFmut melanoma PDX model, tumor growth and survival; assay type: in vivo; conditions: ME-016 tumor-containing mice; Compound I 100 mg/kg, dabrafenib 25 mg/kg, trametinib 1 mg/kg
Experimental: Mice containing a ME-016 tumor were treated with vehicle, Compound I (100 mg/kg), dabrafenib (25 mg/kg), trametinib (1 mg/kg), Compound I+dabrafenib, Compound I+trametinib, dabrafenib+trametinib, and Compound I+dabrafenib+trametinib.

[3] = Stability study under thermal stress, 60° C. for 7 days; assay type: physicochemical
Experimental: Forms A, B, and D were stored in an oven maintained at 60° C. for 7 days.

[4] = Dynamic vapor sorption (moisture sorption) experiment; conditions: for % wt change at 60% RH / % wt change at 90% RH: DVS; for stability in the moisture sorption experiment (XRPD of dried sample): after DVS; for stability in the moisture sorption experiment (XRPD of dried sample) / XRPD (post DVS): dried at 60° C. and 0% RH; for XRPD (post DVS): after moisture sorption experiment
Experimental: Dynamic vapor sorption experiments were performed on Form A, Form B, and Form D. Table 103 provides the results of the DVS experiment.

[5] = Vacuum drying experiments of Form B; assay type: physicochemical; conditions: for Weight Loss (calculated by weight before and after drying): Vacuum oven
[6] = Vacuum drying experiments of Form B; assay type: physicochemical; conditions: for Weight Loss (calculated by weight before and after drying): Vacuum oven; for XRPD Result: after Vacuum oven
Source text: Weighted amounts of impure Form B and pure Form B samples from the previous experiments (Samples 14, 8, 11, 19, 21, and 23) were vacuum dried at ambient or elevated temperatures using various vacuum levels from approximately 14 in Hg up 27-28 in Hg. The resulting materials were weighted out prior to submission for XRPD analysis.
The XRPD pattern of the resulting material was consistent with Form B, however, tiny shifting in a few peak positions in the XRPD pattern was observed (FIG. 26).

[7] = Grade 3/4 neutropenia and leukopenia; cited from earlier work
[8] = cited from earlier work; for AUC0-10,ss: arithmetic mean
[9] = Steady-state AUC0-24,ss, (AUC0-24,ss)/dose, half-life and time to steady state: Compound I versus palbociclib, ribociclib, abemaciclib; assay type: in vivo, human; conditions: for AUC(0-t): human, in vivo, read-out: Extrapolated AUC0-24,ss
Source text: The time to reach steady state was defined as five half-lives (97% steady state achieved). […] The AUC data are presented as the arithmetic mean. […] The AUC data are presented as the geometric mean. The steady-state AUC0-24 for various BID doses of abemaciclib provided in Table 89 was obtained from the above cited prior published studies. The AUC data are presented as the geometric mean.

[10] = 125 mg QD, FDA labeled dose, five half-lives

## CC(C)N1CCN(c2ccc(Nc3ncc4cc5n(c4n3)C3(CCCCC3)CNC5=O)nc2)CC1.Cl.Cl [Compound II, Form B]
[1]; 0.38 min, 36.60 ° C.
  Weight (%): 99.93%
[1]; 0.55 min, 40.20 ° C.
  Weight (%): 99.87%
[1]; 0.73 min, 43.80 ° C.
  Weight (%): 99.77%
[1]; 0.90 min, 47.40 ° C.
  Weight (%): 99.63%
[1]; 1.08 min, 51.00 ° C.
  Weight (%): 99.46%
[1]; 1.25 min, 54.60 ° C.
  Weight (%): 99.26%
[1]; 1.43 min, 58.20 ° C.
  Weight (%): 99.03%
[1]; 1.61 min, 61.80 ° C.
  Weight (%): 98.79%
[1]; 1.78 min, 65.40 ° C.
  Weight (%): 98.52%
[1]; 1.96 min, 69.00 ° C.
  Weight (%): 98.22%
[1]; 2.14 min, 72.60 ° C.
  Weight (%): 97.86%
[1]; 2.32 min, 76.20 ° C.
  Weight (%): 97.44%
[1]; 2.50 min, 79.80 ° C.
  Weight (%): 96.95%
[1]; 2.68 min, 83.40 ° C.
  Weight (%): 96.45%
[1]; 2.86 min, 87.00 ° C.
  Weight (%): 95.97%
[1]; 3.04 min, 90.60 ° C.
  Weight (%): 95.57%
[1]; 3.23 min, 94.20 ° C.
  Weight (%): 95.23%
[1]; 3.41 min, 97.80 ° C.
  Weight (%): 94.95%
[1]; 3.59 min, 101.40 ° C.
  Weight (%): 94.71%
[1]; 3.77 min, 105.00 ° C.
  Weight (%): 94.50%
[1]; 3.95 min, 108.60 ° C.
  Weight (%): 94.32%
[1]; 4.13 min, 112.20 ° C.
  Weight (%): 94.18%
[1]; 4.31 min, 115.80 ° C.
  Weight (%): 94.06%
[1]; 4.68 min, 123.00 ° C.
  Weight (%): 93.86%
[1]; 4.86 min, 126.60 ° C.
  Weight (%): 93.78%
[1]; 5.04 min, 130.20 ° C.
  Weight (%): 93.71%
[1]; 5.22 min, 133.80 ° C.
  Weight (%): 93.65%

## CC(C)(C)c1nc(-c2cccc(NS(=O)(=O)c3c(F)cccc3F)c2F)c(-c2ccnc(N)n2)s1 [Dabrefinib]
[2]
  Median OS: 32 days

## CC(C)N1CCN(c2ccc(Nc3ncc4cc5n(c4n3)C3(CCCCC3)CNC5=O)nc2)CC1.Cl.Cl [Form A]
[3]
  XRPD pattern after thermal stress: A new pattern was found; also recorded: converted to a new Form
[4]; 60% RH
  moisture adsorbed: 14.9 wt %
  % wt change at 60% RH: 14.9 % wt
[4]; 90% RH
  moisture adsorbed: 15.8 wt %
  % wt change at 90% RH: 15.8 % wt
[4]
  stability in the moisture sorption experiment (XRPD of dried sample): unstable; also recorded: not stable
  XRPD (post DVS): Form K

## CC(C)N1CCN(c2ccc(Nc3ncc4cc5n(c4n3)C3(CCCCC3)CNC5=O)nc2)CC1.Cl.Cl [Form C]
[3]
  XRPD pattern after thermal stress: remained unchanged

## CC(C)N1CCN(c2ccc(Nc3ncc4cc5n(c4n3)C3(CCCCC3)CNC5=O)nc2)CC1.Cl.Cl [Form D]
[3]
  XRPD pattern after thermal stress: No change in the XRPD pattern
[4]; 60% RH
  moisture adsorbed: 4.4 wt %
  % wt change at 60% RH: 4.4 % wt
[4]; 90% RH
  % wt change at 90% RH: 17.0 % wt
[4]
  stability in the moisture sorption experiment (XRPD of dried sample): unstable; also recorded: not stable
  XRPD (post DVS): Form K

## CC(C)N1CCN(c2ccc(Nc3ncc4cc5n(c4n3)C3(CCCCC3)CNC5=O)nc2)CC1.Cl.Cl [Sample 8]
[5]; ~40° C., 15 h (~29.5 in Hg)
  Weight Loss (calculated by weight before and after drying): Weight loss: 7.4%
[5]; after Vacuum oven, ~40° C., 15 h (~29.5 in Hg)
  XRPD Result: New crystalline

## CC(C)N1CCN(c2ccc(Nc3ncc4cc5n(c4n3)C3(CCCCC3)CNC5=O)nc2)CC1.Cl.Cl [Sample 11]
[6]; 22° C., 0.5 h (~14 in Hg)
  Weight Loss (calculated by weight before and after drying): Weight loss: 1.8%
  XRPD Result: Form B tiny peak

## CC(C)N1CCN(c2ccc(Nc3ncc4cc5n(c4n3)C3(CCCCC3)CNC5=O)nc2)CC1.Cl.Cl [Sample 14]
[5]; 23° C., 2 h (~29.5 in Hg)
  Weight Loss (calculated by weight before and after drying): Weight loss: 6.8%
[5]; ~40° C., 15 h (~29.5 in Hg)
  Weight Loss (calculated by weight before and after drying): Weight loss: 7.5%

## CC(C)N1CCN(c2ccc(Nc3ncc4cc5n(c4n3)C3(CCCCC3)CNC5=O)nc2)CC1.Cl.Cl [Sample 19]
[6]; RT, 1.0 h (~27-28 in Hg)
  Weight Loss (calculated by weight before and after drying): Weight loss: 9.7%
  XRPD Result: Form B + broad

## CC(C)N1CCN(c2ccc(Nc3ncc4cc5n(c4n3)C3(CCCCC3)CNC5=O)nc2)CC1.Cl.Cl [Sample 21]
[6]; 22° C., 0.5 h (~28 in Hg)
  Weight Loss (calculated by weight before and after drying): Weight loss: 30.6%

## CC(C)N1CCN(c2ccc(Nc3ncc4cc5n(c4n3)C3(CCCCC3)CNC5=O)nc2)CC1.Cl.Cl [Sample 23]
[6]; 22° C., 1.0 h (~27-28 in Hg)
  Weight Loss (calculated by weight before and after drying): Weight loss: 4.7%
  XRPD Result: Most likely Form B

## CC(=O)Nc1cccc(-n2c(=O)n(C3CC3)c(=O)c3c(Nc4ccc(I)cc4F)n(C)c(=O)c(C)c32)c1 [Trametinib]
[2]
  Median OS: 42.5 days

## CC(=O)c1c(C)c2cnc(Nc3ccc(N4CCNCC4)cn3)nc2n(C2CCCC2)c1=O [palbociclib, 6-acetyl-8-cyclopentyl-5-methyl-2-(5-piperazin-1-yl-pyridin-2-ylammino)-8H-pyrido-[2,3-d]-pyrimidin-7-one]
[7]
  patients requiring a dose interruption: 71%
  patients requiring a dose reduction: 35%
[8]; 25 mg QD
  AUC0-10,ss: 119 ng·h/mL
[8]; 50 mg QD
  AUC0-10,ss: 274 ng·h/mL
[8]; 75 mg QD
  AUC0-10,ss: 492 ng·h/mL
[8]; 100 mg QD
  AUC0-10,ss: 592 ng·h/mL
[8]; 125 mg QD, FDA labeled dose
  Mean Half-Life: 26.5 h
[8]; 125 mg QD
  AUC0-10,ss: 724 ng·h/mL
[8]; 150 mg QD
  AUC0-10,ss: 1084 ng·h/mL
[9]; 100 mg QD, AUC0-24=(AUC0-10)*2.49655
  Extrapolated AUC0-24,ss: 1478 ng·h/mL
[9]; [10]
  Time to Steady State: 5.5 days
  Time to Steady-State: 132.5 h
[9]; 25 mg QD, AUC0-24=(AUC0-10)*2.49655
  AUC(0-t): 297 ng·h/mL
[9]; 50 mg QD, AUC0-24=(AUC0-10)*2.49655
  AUC(0-t): 684 ng·h/mL
[9]; 75 mg QD, AUC0-24=(AUC0-10)*2.49655
  AUC(0-t): 1230 ng·h/mL
[9]; 125 mg QD, AUC0-24=(AUC0-10)*2.49655
  AUC(0-t): 1810 ng·h/mL
[9]; 150 mg QD, AUC0-24=(AUC0-10)*2.49655
  AUC(0-t): 2710 ng·h/mL
